According to patent publication US20050267124A1, “Pharmaceutical compositions comprising NEP-inhibitors, inhibitors of the endogenous producing system and PDEV inhibiitors” (Solvay Pharmaceuticals GmbH, priority 2004, published 2005):

Key:
[1] = system: Male Sprague-Dawley rats; assay: Big-ET-induced hypertension following intravenous bolus administration in rats; type: in vivo, rat; conditions: for Maximal Big-ET-induced increase in SAP: anaesthetised rats, i.v. bolus sildenafil 1 mg/kg and/or compound of Formula IV 10 μmol/kg, 0.5 nmol/kg Big-ET 8 min later, mean increase from baseline
Procedure: 1. Big-ET-Induced Hypertension Following Intravenous Bolus Administration in Rats
Male Sprague-Dawley rats (˜[…], fed a standard chow diet, fasted for 18 h prior to the experiments, with free access to drinking water) were anaesthetised with 1 ml/kg Rompun/Ketavet 1:1, and then transferred to servo-controlled, heated tables to maintain body temperature at 37° C. A pressure transducer (Statham) was connected to one carotid artery for measurement of arterial blood pressure. Both jugular veins were cannulated for compound and Big-ET-infusion (Big-ET=endogenous precursor of endothelin), respectively. After an equilibration period of 20 minutes (=min), the animals received either vehicle (10% arlatone G, 10% ethanol, 80% H2O), sildenafil (1 mg/kg), compound of Formula IV (10 μmol/kg), or a combination of sildenafil+compound of Formula IV intravenously (over 1 min in a total volume of 2 ml/kg body weight). 8 min later, 0.5 nmol/kg Big-ET was infused (over 1 min; Big-ET was from Bachem, Heidelberg). Systolic (SAP) and diastolic arterial blood pressures and heart rate were recorded every 5 min for the next 15 min.
The maximal pressor and bradycardic effects were typically reached within 5 min following Big-ET administration.
(§1) The results are expressed as mean±SEM of the maximal systolic blood pressure increase (from baseline) observed after the Big-ET challenge (n: number of animals). 2. Effect on Blood Pressure in Spontaneously Hypertensive Rats

[2] = system: spontaneously hypertensive rats (SHR); assay: Effect on blood pressure in spontaneously hypertensive rats (telemetry); type: in vivo, rat; conditions: i.v. sildenafil 3 mg/kg, alone or with compound of Formula IV 10 μmol/kg, change vs. baseline averaged over last 15 min of 30 min after treatment
Text: as §1
Male spontaneously hypertensive rats (=SHR, insulin resistant strain from Charles River; aged 6 months) were equipped with telemetry transmitters for continuous monitoring of blood pressure and heart rate. Telemetry transmitters for continuous monitoring of blood pressure, heart rate and locomotor activity (TA11PA-C40, Data Sciences, USA) were implanted intraabdominally under inhalative halothane anesthesia. A midline abdominal incision was made, and the abdominal aorta was visualized by removal of retroperitoneal fat and connective tissue. A ligature was placed caudal of the renal arteries, the aorta was punctured with a 22G needle, and the catheter was advanced into the aorta. The entry point was sealed with tissue adhesive (Vetbond®, 3M, USA), the ligature was removed, and the abdominal incision was closed. […]
On the day of the experiments, blood pressure was first monitored for 30 min under baseline (untreated) conditions before a group of animals received sildenafil (3 mg/kg), and another one sildenafil (3 mg/kg) combined with compound of Formula IV (10 μmol/kg) via injection into the caudal vein. Blood pressure was then measured for another 30 min. […]

## CCCc1nn(C)c2c(=O)[nH]c(-c3cc(S(=O)(=O)N4CCN(C)CC4)ccc3OCC)nc12 [Sildenafil, sildenafil]
[1]; after i.v. sildenafil 1 mg/kg, until timepoint of Big-ET application
  time for which the drop in blood pressure was stable: at least 8 min
[1]
  Maximal Big-ET-induced increase in SAP: 42.6 mm Hg
[1]; immediately after i.v. administration, before the Big-ET challenge, sildenafil 1 mg/kg, compound of Formula IV 10 μmol/kg
  drop in systolic blood pressure as compared to baseline: 15±3 mm Hg
[2]
  Average change in systolic blood pressure: −10.5 mm Hg

## O=C(O)CN1C(=O)C(NC(=O)C2(CC(CCc3ccccc3)C(=O)O)CCCC2)CCc2ccccc21 (stereo not drawn) [compound of Formula IV, 2-[1-(1-carboxymethyl-2-oxo-2,3,4,5-tetrahydro-1H-benzo[b]azepin-3-ylcarbamoyl)-cyclopentylmethyl]-4-phenyl-butyric acid]
[1]
  Maximal Big-ET-induced increase in SAP: 43.0 mm Hg
[1]; compound of Formula IV 10 μmol/kg i.v. with sildenafil 1 mg/kg, before Big-ET challenge
  effect on the hypotensive action of sildenafil: not reinforce the hypotensive action of sildenafil
